Data reported in US20170360671A1, “METHOD FOR PREPARING 3,6-ANHYDRO-L-GALACTOSE, AND USE THEREOF” (Korea University Research and Business Foundation, priority 2012, published 2017).

System: mushroom-derived tyrosinase
Assay: In vitro (cell-free) tyrosinase activity assay with L-tyrosine as substrate
Format: biochemical
Details: 200 μM
Experimental: The in vitro tyrosinase analyses were performed using a slight modification of the reported method (Ishihara Y et al., The journal of antibiotics (Tokyo) 1991; 44:25-32; An S M, Koh J S, Boo Y C, Phytotherapy Research 2010; 24:1175-1180). In brief, 250 μl of a 0.1M potassium phosphate buffer (pH 6.8) was put into a 24-well plate, and 25 μl of a mushroom-derived tyrosinase (2,000 units/mL), 25 μl of a sample, and 225 μl of distilled water were put into each well. The plate was incubated at 25° C. for 10 minutes, and 25 μl of 1 mM L-tyrosine used as a substrate was added to the wells. Then, the plate was incubated at 25° C. for 10 minutes, and the optical density of each well measured at 475 nm using a microplate reader (Sunrise-Basic Tecan, Austria). Each of the measured values was represented by a variation (%) with respect to the control. L-tyrosine was used as the substrate, and arbutin was used as the positive control. The results were represented by the relative tyrosinase activities to the non-treated control. Next, effects of L-AHG on the tyrosinase activities were examined using a cell-free assay system. Many reports disclosed that the mushroom-derived tyrosinase was primarily used as a model since it was able to be used in the form of a tablet. […] The results were represented by the relative tyrosinase activities to the non-treated control. […]

Question: With `OC[C@H]1O[C@@H](Oc2ccc(O)cc2)[C@H](O)[C@@H](O)[C@@H]1O` [arbutin] as the compound, how does the “tyrosinase activities relative to the non-treated control” value read?
Answer: Its value is 40%.
